# In ChEMBL document CHEMBL3714732, “Small molecule modulators of g protein-coupled receptor six” (2001):
# Active and inactive are the calls of the source. The calls are words filed in the database; no cut-off is given here.
# Assays:
# [1] = target: T1, G-protein coupled receptor 6 (Homo sapiens, UniProt P46095); test: Inverse agonist activity at rat G-protein GSalpha fused GPR6 (unknown origin) expressed in HEK293 cell membranes assessed as effect on [35S]GTPgammaS binding pre-incubated for 5 to 10 mins followed by 60 mins incubation in presence of [35S]GTPgammaS by scintillation proximity assay; type: functional
# T1 sequence (P46095 whole entry, the tested form may be a part): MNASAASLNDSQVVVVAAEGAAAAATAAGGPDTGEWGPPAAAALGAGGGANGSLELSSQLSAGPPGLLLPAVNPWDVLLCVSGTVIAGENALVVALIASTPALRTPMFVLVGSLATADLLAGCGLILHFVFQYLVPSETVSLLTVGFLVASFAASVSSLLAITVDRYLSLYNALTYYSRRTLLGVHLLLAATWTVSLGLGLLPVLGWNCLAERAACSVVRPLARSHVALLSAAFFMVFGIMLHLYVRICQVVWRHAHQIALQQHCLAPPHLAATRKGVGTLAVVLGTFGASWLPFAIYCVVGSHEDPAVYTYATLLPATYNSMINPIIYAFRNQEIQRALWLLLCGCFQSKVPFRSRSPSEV
# [2] = target: T1, G-protein coupled receptor 6; test: Inverse agonist activity at rat G-protein GSalpha fused GPR6 (unknown origin) expressed in HEK293 cell membranes assessed as cAMP accumulation pre-incubated for 30 mins by microbeta plate reader based assay; type: functional
# Rattus norvegicus [3] = test: Reduction in water intake in 24 hrs food-deprived Sprague-Dawley rat assessed as water intake level at 100 umol/kg, po followed by standard chow pellets feeding and measured 8 hrs post dose (reference value: 19g); type: functional
# Rattus norvegicus [4] = test: Reduction in food intake in 24 hrs food-deprived Sprague-Dawley rat assessed as food intake level at 100 umol/kg, po followed by standard chow pellets feeding and measured 8 hrs post dose (reference value: 14 to 14.5g); type: functional
# Rattus norvegicus [5] = test: Reduction in food intake in 24 hrs food-deprived Sprague-Dawley rat assessed as food intake level per 2 hrs at 100 umol/kg, po followed by standard chow pellets feeding and measured 8 hrs post dose (reference value: 2 to 2.5g/2 hrs); type: functional
# Rattus norvegicus [6] = test: Reduction in body weight gain in 24 hrs food-deprived Sprague-Dawley rat assessed as body weight at 100 umol/kg, po followed by standard chow pellets feeding and measured 8 hrs post dose (reference value: 19.5g); type: functional
# Rattus norvegicus [7] = test: Reduction in water intake in 24 hrs food-deprived Sprague-Dawley rat assessed as water intake level at 100 umol/kg, po followed by standard chow pellets feeding and measured 6 hrs post dose (reference value: 19.25 to 22.9g); type: functional
# Rattus norvegicus [8] = test: Reduction in body weight gain in 24 hrs food-deprived Sprague-Dawley rat assessed as body weight gain level at 100 umol/kg, po followed by standard chow pellets feeding and measured 6 hrs post dose (reference value: 19.25 to 20.3g); type: functional
# Rattus norvegicus [9] = test: Reduction in body weight gain in 24 hrs food-deprived Sprague-Dawley rat assessed as body weight gain level at 100 umol/kg, po followed by standard chow pellets feeding and measured 6 hrs post dose (reference value: 20.3g); type: functional
# Rattus norvegicus [10] = test: Reduction in body weight gain in 24 hrs food-deprived Sprague-Dawley rat assessed body weight gain intake level at 100 nmol, icv (reference value: 12g); type: functional
# Rattus norvegicus [11] = test: Reduction in food intake in 24 hrs food-deprived Sprague-Dawley rat assessed as food intake level at 27 mg/kg, po followed by standard chow pellets feeding and measured 8 hrs post dose (reference value: 14g); type: functional
# Rattus norvegicus [12] = test: Reduction in water intake in non-food-deprived Sprague-Dawley rat at 6.75 to 54 mg/kg, ip dosed 30 mins before beginning of dark cycle followed by exposure to standard chow pellets and measured 15.5 hrs post dose; type: functional, organism-based
# Rattus norvegicus [13] = test: Reduction in food intake in non-food-deprived Sprague-Dawley rat assessed as food intake level at 6.5 to 54 mg/kg, po followed by standard chow pellets feeding and measured 18 hrs post dose (reference value: 15g); type: functional
# Rattus norvegicus [14] = test: Reduction in water intake in 24 hrs food-deprived Sprague-Dawley rat at 100 nmol, icv; type: functional
# Rattus norvegicus [15] = test: Reduction in food intake in 24 hrs food-deprived Sprague-Dawley rat assessed food intake level at 25 to 100 nmol, icv measured 3 hrs post dose (reference value: 2.5g); type: functional
# Rattus norvegicus [16] = test: Induction of sedation in ip dosed Sprague-Dawley rat assessed as relaxed behavior after 16 hrs post dose; type: organism-based; details: in vivo
# Rattus norvegicus [17] = test: Reduction in food intake in non-food-deprived Sprague-Dawley rat assessed as food intake level at 13.5 mg/kg, ip dosed 30 mins before beginning of dark cycle followed by exposure to standard chow pellets and measured 4 hrs post dose (reference value: 9g); type: functional
# Rattus norvegicus [18] = test: Reduction in food intake in 24 hrs food-deprived Sprague-Dawley rat at 25 to 100 nmol, icv measured after 2 hrs post dose; type: functional
# Rattus norvegicus [19] = test: Reduction in food intake in 24 hrs food-deprived Sprague-Dawley rat dosed orally followed by standard chow pellets feeding; type: functional, organism-based
# Rattus norvegicus [20] = test: Reduction in food intake in 24 hrs food-deprived Sprague-Dawley rat assessed as food intake level at 54 mg/kg, po followed by standard chow pellets feeding and measured 2.5 hrs post dose (reference value: 6g); type: functional
# Rattus norvegicus [21] = test: Reduction in body weight gain in non-food-deprived Sprague-Dawley rat at 6.75 to 54 mg/kg, ip dosed 30 mins before beginning of dark cycle followed by exposure to standard chow pellets and measured 15.5 hrs post dose; type: functional, organism-based
# Rattus norvegicus [22] = test: Reduction in body weight gain in 24 hrs food-deprived Sprague-Dawley rat assessed as body weight level at 27 mg/kg, ip followed by standard chow pellets feeding and measured 6.5 hrs post dose; type: functional, organism-based
# Rattus norvegicus [23] = test: Reduction in body weight gain in 24 hrs food-deprived Sprague-Dawley rat assessed as body weight level at 54 mg/kg, ip followed by standard chow pellets feeding and measured 6.5 hrs post dose; type: functional, organism-based
# Rattus norvegicus [24] = test: Reduction in water intake in 24 hrs food-deprived Sprague-Dawley rat assessed as at 27 mg/kg, ip followed by standard chow pellets feeding and measured 6.5 hrs post dose relative to control; type: functional
# Rattus norvegicus [25] = test: Reduction in food intake in non-food-deprived Sprague-Dawley rat at 6.5 to 54 mg/kg, po followed by standard chow pellets feeding and measured 18 hrs post dose relative to control; type: functional
# Rattus norvegicus [26] = test: Reduction in body weight gain in 24 hrs food-deprived Sprague-Dawley rat assessed as body weight level at 13.5 mg/kg, ip followed by standard chow pellets feeding and measured 6.5 hrs post dose (reference value: 20g); type: functional
# Rattus norvegicus [27] = test: Induction of sedation in ip dosed Sprague-Dawley rat assessed as absence of anxiety like behavior after 16 hrs post dose; type: organism-based; details: in vivo
# Rattus norvegicus [28] = test: Reduction in water intake in 24 hrs food-deprived Sprague-Dawley rat assessed water intake level at 25 and 50 nmol, icv (reference value: 17 g); type: functional
# Rattus norvegicus [29] = test: Reduction in food intake in 24 hrs food-deprived Sprague-Dawley rat assessed as food intake level at 54 mg/kg, ip followed by standard chow pellets feeding and measured 1.5 hrs post dose (reference value: 6g); type: functional
# Rattus norvegicus [30] = test: Reduction in food intake in non-food-deprived Sprague-Dawley rat assessed as food intake level at 54 mg/kg, ip dosed 30 mins before beginning of dark cycle followed by exposure to standard chow pellets and measured 4 hrs post dose (reference value: 9g); type: functional
# Rattus norvegicus [31] = test: Reduction in food intake in 24 hrs food-deprived Sprague-Dawley rat assessed as food intake level at 54 mg/kg, po followed by standard chow pellets feeding and measured 8 hrs post dose (reference value: 14g); type: functional
# Rattus norvegicus [32] = test: Induction of sedation in non-food-deprived Sprague-Dawley rat subjected to pre-pulse of 12 db followed by 120 db pulse assessed as animal jump height level at 6.75 mg/kg, po dosed 4.5 hrs before test; type: organism-based; details: in vivo
# Rattus norvegicus [33] = test: Reduction in body weight gain in non-food-deprived Sprague-Dawley rat at 13.5 mg/kg, ip qd for 22 days measured between day-4 and day-31 post dose; type: functional, organism-based
# Rattus norvegicus [34] = test: Reduction in food intake in 24 hrs food-deprived Sprague-Dawley rat assessed as food intake level at 27 mg/kg, po followed by standard chow pellets feeding and measured 2.5 hrs post dose (reference value: 6g); type: functional
# Rattus norvegicus [35] = species: Rattus norvegicus; test: Effect on motor function in Sprague-Dawley rat assessed as effect on locomotor activity for 1.5 hrs tested immediately after compound dose; type: organism-based; details: in vivo
# Rattus norvegicus [36] = test: Reduction in body weight gain in non-food-deprived Sprague-Dawley rat at 13.5 mg/kg, ip qd for 22 days measured between day-31 and day-60 post dose; type: functional, organism-based
# Rattus norvegicus [37] = test: Induction of sedation in non-food-deprived Sprague-Dawley rat subjected to pre-pulse of 12 db followed by 120 db pulse assessed as animal jump height level at 13.5 and 54 mg/kg, po dosed 4.5 hrs before test; type: organism-based; details: in vivo
# Rattus norvegicus [38] = test: Reduction in food intake in 24 hrs food-deprived Sprague-Dawley rat assessed as food intake level at 54 mg/kg, ip followed by standard chow pellets feeding and measured 6.5 hrs post dose (reference value: =<14g); type: functional
# Rattus norvegicus [39] = test: Reduction in water intake in 24 hrs food-deprived Sprague-Dawley rat at 54 mg/kg, ip followed by standard chow pellets feeding and measured 6.5 hrs post dose relative to control; type: functional
# Rattus norvegicus [40] = test: Reduction in body weight gain in non-food-deprived Sprague-Dawley rat at 13.5 mg/kg, ip qd for 22 days measured on day-1 and day-3 post dose; type: functional, organism-based
structure (smiles),measurement,setting,value
COc1cccc(C(=O)/N=C2\SSC3=NCCN32)c1,IC50,[1],310 nM
same,IC50,[2],400 nM
O=C(/N=C1\SSC2=NCCN21)c1cnn(-c2ccc(Cl)cc2)c1C(F)(F)F,IC50,[1],190 nM
O=C(/N=C1\SSC2=NCCN21)c1cccc(F)c1,Activity,Rattus norvegicus [3],10 g
same,IC50,[1],220 nM
same,Activity,Rattus norvegicus [4],9.1 g
same,Activity,Rattus norvegicus [5],1 g
same,Activity,Rattus norvegicus [6],9 g
same,IC50,[2],240 nM
same,Activity,Rattus norvegicus [7],9.5 g
same,Activity,Rattus norvegicus [8],9.5 g
O=C(NC(=S)N1CCNC1=S)c1cnn(-c2ccc(Cl)cc2)c1C(F)(F)F,IC50,[1],200000 nM
same,IC50,[2],200000 nM
O=C(/N=C1\SSC2=NCCN21)c1ccccc1F,IC50,[1],350 nM
same,IC50,[2],100 nM
O=C(/N=C1\SSC2=NCCN21)c1cccnc1,IC50,[1],670 nM
same,IC50,[2],133 nM
O=C(/N=C1\SSC2=NCCN21)c1cc2ccccc2s1,Activity,Rattus norvegicus [3],19 g
same,IC50,[1],130 nM
same,Activity,Rattus norvegicus [4],9.6 g
same,Activity,Rattus norvegicus [5],1 g
same,Activity,Rattus norvegicus [6],14 g
same,IC50,[2],190 nM
same,Activity,Rattus norvegicus [7],20 g
O=C(/N=C1\SSC2=NCCN21)c1ccno1,IC50,[1],330 nM
same,IC50,[2],100 nM
Cc1noc(C)c1C(=O)/N=C1\SSC2=NCCN21,IC50,[1],460 nM
same,IC50,[2],350 nM
O=C(NC(=S)N1CCNC1=S)c1ccccc1F,IC50,[2],200000 nM
Cc1onc(-c2ccccc2)c1C(=O)/N=C1\SSC2=NCCN21,IC50,[1],2460 nM
O=C(NC(=S)N1CCNC1=S)c1cccc2ccccc12,IC50,[1],200000 nM
O=C(NC(=S)N1CCNC1=S)c1ccno1,IC50,[1],2430 nM
same,IC50,[2],5830 nM
CC(C)(C)c1ccc(C(=O)NC(=S)N2CCNC2=S)cc1,IC50,[1],200000 nM
O=C(/N=C1\SSC2=NCCN21)c1ccc(F)cc1F,IC50,[1],410 nM
same,IC50,[2],190 nM
O=C(/N=C1\SSC2=NCCN21)c1ccc(C(F)(F)F)cc1,IC50,[1],570 nM
same,IC50,[2],170 nM
Cc1cccc(C(=O)/N=C2\SSC3=NCCN32)c1,IC50,[1],790 nM
same,IC50,[2],140 nM
CC(C)(C)c1ccc(C(=O)/N=C2\SSC3=NCCN32)cc1,IC50,[1],650 nM
same,IC50,[2],370 nM
O=C(/N=C1\SSC2=NCCN21)c1ccc(Cl)cc1,IC50,[1],640 nM
same,Activity,Rattus norvegicus [4],9.88 g
same,IC50,[2],270 nM
same,Activity,Rattus norvegicus [7],18.5 g
same,Activity,Rattus norvegicus [8],11.4 g
CSc1ncccc1C(=O)NC(=S)N1CCNC1=S,IC50,[1],200000 nM
O=C(NC(=S)N1CCNC1=S)c1ccc2ccccc2c1,Activity,Rattus norvegicus [3],19 g
same,Activity,Rattus norvegicus [5],2.5 g
same,Activity,Rattus norvegicus [6],19.5 g
COc1ccc(C(=O)/N=C2\SSC3=NCCN32)cc1,IC50,[1],830 nM
same,IC50,[2],210 nM
O=C(/N=C1\SSC2=NCCN21)c1ccco1,IC50,[1],250 nM
same,IC50,[2],110 nM
O=C(/N=C1\SSC2=NCCN21)c1ccccc1,IC50,[1],440 nM
same,Activity,Rattus norvegicus [9],6.18 g
same,IC50,[2],170 nM
O=C(/N=C1\SSC2=NCCN21)c1ccc2ccccc2c1,Activity,Rattus norvegicus [3],4 g
same,IC50,[1],170 nM
same,Activity,Rattus norvegicus [4],9 g
same,Activity,Rattus norvegicus [5],1 g
same,Activity,Rattus norvegicus [6],11 g
same,IC50,[2],170 nM
same,Activity,Rattus norvegicus [8],11 g
O=C(/N=C1\SSC2=NCCN21)c1ccc(F)cc1,IC50,[1],370 nM
same,Activity,Rattus norvegicus [4],7.93 g
same,IC50,[2],200 nM
same,Activity,Rattus norvegicus [7],8.5 g
same,Activity,Rattus norvegicus [8],4.03 g
O=C(/N=C1\SSC2=NCCN21)c1cccs1,Activity,Rattus norvegicus [10],5 g
same,Activity,Rattus norvegicus [11],8 g
same,Activity,Rattus norvegicus [12],Active
same,IC50,[1],420 nM
same,Activity,Rattus norvegicus [13],<=5 g
same,inhibition (INH),Rattus norvegicus [14],>=50%
same,Activity,Rattus norvegicus [15],<=1 g
same,Activity,Rattus norvegicus [16],Toxic
same,Activity,Rattus norvegicus [17],4 g
same,fold change (FC),Rattus norvegicus [18],6
same,Activity,Rattus norvegicus [4],8.1 g
same,Activity,Rattus norvegicus [19],Dose-dependent effect
same,Activity,Rattus norvegicus [20],4 g
same,Activity,Rattus norvegicus [21],Active
same,Activity,Rattus norvegicus [22],Active
same,Activity,Rattus norvegicus [23],Active
same,fold change (FC),Rattus norvegicus [24],4
same,fold change (FC),Rattus norvegicus [25],3
same,Activity,Rattus norvegicus [26],11 g
same,Activity,Rattus norvegicus [27],Toxic
same,Activity,Rattus norvegicus [28],17 g
same,Activity,Rattus norvegicus [29],3 g
same,Activity,Rattus norvegicus [30],2 g
same,Activity,Rattus norvegicus [31],6 g
same,Activity,Rattus norvegicus [6],6 g
same,Activity,Rattus norvegicus [32],Non-toxic
same,Activity,Rattus norvegicus [33],Active
same,IC50,[2],100 nM
same,Activity,Rattus norvegicus [34],6 g
same,Activity,Rattus norvegicus [35],Non-toxic
same,Activity,Rattus norvegicus [36],Active
same,Activity,Rattus norvegicus [37],Toxic
same,Activity,Rattus norvegicus [38],4 g
same,fold change (FC),Rattus norvegicus [39],5
same,Activity,Rattus norvegicus [40],Active
